Laboratory results: patent publication US4824829A, “Non-dusting antibiotic, anticoccidial premix compositions and a process for their manufacture” (American Cyanamid Company, priority 1985, dated 1989)

Experiments:
[1] = Segregation study (drug accumulation in medicated poultry feed after two hours on drum roller); assay type: physicochemical
Experimental: The segregation test is performed in a commercially-blended poultry feed, supplemented with 1000 ppm (0.1%) of drug, using the premix prepared in Example 1 in one blend and pure drug with an equivalent amount of corncob grits in the other as indicated in Table IV below.
These materials are placed into new one-gallon Nalgene dense polyethylene jars and placed on a drum roller for two hours. At the end of the mixing time, the jars are sampled in the horizontal position to remove the material which has accumulated and packed in the neck (#1), then the jars are emptied without shaking or tapping, and a cross-sectional sample taken from the bulk (#2); finally, the empty jar is extracted and assayed for residual drug (#3).

[2] = Relative Dermal Toxicities (LD50 Rabbit Dermal Toxicity); details: in vivo, topical or ocular, Female, maduramicin
in vivo = details: rabbit, topical or ocular
[3] = emptied jar residue, feed with 1000 ppm drug
[4] = neck of jar, feed with 1000 ppm drug

SMILES	#2 Bulk sample, Assay ([1]; cross-sectional bulk sample, feed with 1000 ppm drug) [ppm]	#3 Bottle residue, Assay [1, 3] [ppm]	#3 Bottle residue, Total Drug [1, 3] [mg]	#3 Bottle residue, Weight [1, 3] [g]	separation of drug from the feed ([1]; mixed dry with feed)	tendency to accumulate in the spots of least movement ([1]; mixed dry with feed, neck of the bottle, vs premix)	actual amount of drug segregating, pure drug vs premix (times larger) ([1]; neck accumulation, pure drug relative to premix)	#1 Neck accumulation, Assay [1, 4] [ppm]	#1 Neck accumulation, Total Drug [1, 4] [mg]	#1 Neck accumulation, Weight [1, 4] [g]	LD50 [2] [mg/kg]	LD50 (in vivo) [mg/kg]
COC1CC(OC2CC(C3OC(C)(O)C(C)CC3C)OC2C2(C)CCC(C3(C)CCC4(CC(O)C(C)C(C(C)C5OC(O)(CC(=O)O)C(C)C(OC)C5OC)O4)O3)O2)OC(C)C1OC (stereo not drawn) [Pure Drug]	1115	2300	1.85	0.80	separates freely from the feed	greater tendency to accumulate in the spots of least movement	more than seven	1745	14.8	8.5	–	–
CO[C@@H]1[C@@H](OC)[C@H](C)[C@@](O)(CC(=O)O)O[C@H]1[C@H](C)[C@H]1O[C@@]2(CC[C@@](C)([C@H]3CC[C@@](C)([C@@H]4O[C@@H]([C@H]5O[C@](C)(O)[C@H](C)C[C@@H]5C)C[C@@H]4O[C@@H]4C[C@H](OC)[C@@H](OC)[C@H](C)O4)O3)O2)C[C@H](O)[C@H]1C [Composition 1, maduramicin]	–	–	–	–	–	–	–	–	–	–	3.7	8.9
